Experimental data: ChEMBL document CHEMBL1201862, “PubChem BioAssay data set” (2004)
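Results reflect a 48-hour exposure of cells in 96-well plates to compound at five concentrations. Here, GI50 denotes the concentration required for 50% inhibition of growth.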 Calls of active or inactive are those of the source. Cut-off read from the data, not from the text of the source: active = GI50 up to about 1.1 µM and inactive = higher.

Assays:
Experiment in all cases: NCI anticancer screen, dose series, 48 h
HCT-116 = test system: HCT-116
IGROV-1 = test system: IGROV-1
SF-268 = test system: SF-268
OVCAR-4 = test system: OVCAR-4
EKVX = test system: EKVX
A549 = test system: A549
SK-MEL-2 = test system: SK-MEL-2
UACC-257 = test system: UACC-257
SR = test system: SR
786-0 = test system: 786-0
CAKI-1 = test system: CAKI-1
DMS-273 = test system: DMS-273
NCI-H23 = test system: NCI-H23
KM12 = test system: KM12
HT-29 = test system: HT-29
SW-620 = test system: SW-620
PC-3 = test system: PC-3
NCI/ADR-RES = test system: NCI/ADR-RES
T47D = test system: T47D
DU-145 = test system: DU-145

Row | Compound | GI50 (HCT-116) | GI50 (IGROV-1) | GI50 (SF-268) | GI50 (OVCAR-4) | GI50 (EKVX) | GI50 (A549) | GI50 (SK-MEL-2) | GI50 (UACC-257) | GI50 (SR) | GI50 (786-0) | GI50 (CAKI-1) | GI50 (DMS-273) | GI50 (NCI-H23) | GI50 (KM12) | GI50 (HT-29) | GI50 (SW-620) | GI50 (PC-3) | GI50 (NCI/ADR-RES) | GI50 (T47D) | GI50 (DU-145)
1 | C/C(CC(=O)Nc1ccc(Cl)c(Cl)c1)=N/NC(=O)C[N+](C)(C)C | > 100 µM (inactive) | > 100 µM (inactive) | > 100 µM (inactive) | > 100 µM (inactive) | > 100 µM (inactive) | > 100 µM (inactive) | > 100 µM (inactive) | > 100 µM (inactive) | 22.5 µM (inactive) | 56.5 µM (inactive) | > 100 µM (inactive) | 38.8 µM (inactive) | > 100 µM (inactive) | > 100 µM (inactive) | > 100 µM (inactive) | – | – | – | – | –
2 | COc1ccc(OC2(c3cc(OC)ccc3OC)OC(=O)c3ccccc32)cc1 (centres undefined) | > 100 µM (inactive) | > 100 µM (inactive) | > 100 µM (inactive) | > 100 µM (inactive) | > 100 µM (inactive) | > 100 µM (inactive) | > 100 µM (inactive) | > 100 µM (inactive) | > 100 µM (inactive) | > 100 µM (inactive) | > 100 µM (inactive) | > 100 µM (inactive) | > 100 µM (inactive) | > 100 µM (inactive) | > 100 µM (inactive) | > 100 µM (inactive) | – | – | – | –
3 | Cc1noc2cccc(OCc3ccccc3)c12 | 48.1 µM (inactive) | 60.1 µM (inactive) | > 100 µM (inactive) | 82.8 µM (inactive) | 35.7 µM (inactive) | 44.1 µM (inactive) | 23.8 µM (inactive) | 53.8 µM (inactive) | 34.6 µM (inactive) | 99.3 µM (inactive) | 38.1 µM (inactive) | 52 µM (inactive) | > 100 µM (inactive) | 91.2 µM (inactive) | 37.2 µM (inactive) | > 100 µM (inactive) | – | – | – | –
4 | COc1cc([C@H]2c3cc4c(cc3[C@H](NCc3ccc([N+](=O)[O-])cc3)C3COC(=O)[C@H]32)OCO4)cc(OC)c1O (some centres undefined) | 2.36 µM (inactive) | 12.3 µM (inactive) | 1.47 µM (inactive) | 72.8 µM (inactive) | 3.18 µM (inactive) | 0.213 µM (active) | 4.38 µM (inactive) | 7.96 µM (inactive) | 0.0333 µM (active) | 0.877 µM (active) | 0.424 µM (active) | 0.661 µM (active) | 0.398 µM (active) | 2.44 µM (inactive) | 2.17 µM (inactive) | 1.03 µM (active) | – | – | – | –
5 | CC1=C2C(=CC(C)(C)[C@@H]2O)C(=O)[C@](C)(O)C12CC2 [ILLUDIN M] | 0.01 µM (active) | 0.00989 µM (active) | 0.0162 µM (active) | < 0.0112 µM (active) | 0.0773 µM (active) | 0.0275 µM (active) | 0.0134 µM (active) | 0.08 µM (active) | 0.01 µM (active) | 0.01 µM (active) | 0.0209 µM (active) | 0.01 µM (active) | < 0.0126 µM (active) | 0.0284 µM (active) | < 0.0126 µM (active) | 0.013 µM (active) | 0.0138 µM (active) | – | – | –
6 | COc1cccc(NC(=O)/C(Cc2nc3ccccc3nc2C)=N/NC(=O)C[n+]2ccccc2)c1 | 67.1 µM (inactive) | > 100 µM (inactive) | > 100 µM (inactive) | > 100 µM (inactive) | > 100 µM (inactive) | > 100 µM (inactive) | > 100 µM (inactive) | 45.4 µM (inactive) | > 100 µM (inactive) | > 100 µM (inactive) | > 100 µM (inactive) | 63.4 µM (inactive) | > 100 µM (inactive) | > 100 µM (inactive) | > 100 µM (inactive) | 9.08 µM (inactive) | – | – | – | –
7 | O=C1C=CC(=O)c2cc(Sc3ccccc3)c(=O)ccc21 | 18 µM (inactive) | 18.5 µM (inactive) | 22 µM (inactive) | 11 µM (inactive) | 18.3 µM (inactive) | 20.1 µM (inactive) | 13.6 µM (inactive) | 18 µM (inactive) | 1.58 µM (inactive) | 14.8 µM (inactive) | – | 18.9 µM (inactive) | 19.2 µM (inactive) | 18.1 µM (inactive) | 20.6 µM (inactive) | 3.83 µM (inactive) | 18.2 µM (inactive) | 22 µM (inactive) | 3.41 µM (inactive) | 17.4 µM (inactive)
8 | COc1cc2c(cc1O)CN1CCC23C=C[C@@H](O)CC13 (some centres undefined) | 34.1 µM (inactive) | 88.3 µM (inactive) | 59.6 µM (inactive) | 33.2 µM (inactive) | 65.8 µM (inactive) | 75.2 µM (inactive) | 44.8 µM (inactive) | 79.4 µM (inactive) | 40.6 µM (inactive) | 76.4 µM (inactive) | > 100 µM (inactive) | 57.4 µM (inactive) | 78.7 µM (inactive) | 54 µM (inactive) | 47.5 µM (inactive) | 59.6 µM (inactive) | – | – | – | –
9 | COC(=O)C1C=CCON2CCc3c(n(C)c4ccccc34)C12 (centres undefined) | > 100 µM (inactive) | > 100 µM (inactive) | > 100 µM (inactive) | > 100 µM (inactive) | 92.3 µM (inactive) | > 100 µM (inactive) | > 100 µM (inactive) | – | > 100 µM (inactive) | > 100 µM (inactive) | > 100 µM (inactive) | > 100 µM (inactive) | > 100 µM (inactive) | > 100 µM (inactive) | > 100 µM (inactive) | > 100 µM (inactive) | – | – | – | –
10 | O=C1C(c2ccc([N+](=O)[O-])cc2)=[N+]([O-])c2ccccc21 | 25.8 µM (inactive) | 43.3 µM (inactive) | 40.8 µM (inactive) | 9.51 µM (inactive) | 32.8 µM (inactive) | 28 µM (inactive) | > 100 µM (inactive) | – | 23.7 µM (inactive) | > 100 µM (inactive) | 42.2 µM (inactive) | > 10 µM (inactive) | 23.3 µM (inactive) | 34.8 µM (inactive) | 37.6 µM (inactive) | 32.4 µM (inactive) | – | – | – | –
11 | C=C1C(C)C2C(Cc3ccccc3)NC(=O)C23C(OC(C)=O)/C=C/C(C)(O)CC(C)C/C=C/C3C1O (centres undefined) | 4.53 µM (inactive) | 1.32 µM (inactive) | 0.519 µM (active) | 0.904 µM (active) | 1.72 µM (inactive) | 0.603 µM (active) | 8.97 µM (inactive) | 17.1 µM (inactive) | 27.5 µM (inactive) | 0.632 µM (active) | 0.0288 µM (active) | 6.1 µM (inactive) | 13.8 µM (inactive) | 97.3 µM (inactive) | 0.138 µM (active) | 90.6 µM (inactive) | – | 57 µM (inactive) | > 100 µM (inactive) | > 100 µM (inactive)
12 | O=C(O)C1=C(C(=O)Nc2ccc(NC(=O)C3=C(C(=O)O)C4C=CC3C4)cc2)C2C=CC1C2 | > 100 µM (inactive) | > 100 µM (inactive) | > 100 µM (inactive) | > 100 µM (inactive) | > 100 µM (inactive) | > 100 µM (inactive) | 69.7 µM (inactive) | > 100 µM (inactive) | > 100 µM (inactive) | > 100 µM (inactive) | > 100 µM (inactive) | > 100 µM (inactive) | > 100 µM (inactive) | > 100 µM (inactive) | > 100 µM (inactive) | > 100 µM (inactive) | – | – | – | –
13 | CCOC(OC1=C(C#N)CCCC1)C(C)[Se]c1ccccc1 (centres undefined) | 30.1 µM (inactive) | 29.2 µM (inactive) | 18.5 µM (inactive) | 21.7 µM (inactive) | 28.7 µM (inactive) | 84.3 µM (inactive) | > 100 µM (inactive) | 74.6 µM (inactive) | 20.7 µM (inactive) | 15.5 µM (inactive) | 65.2 µM (inactive) | 16.3 µM (inactive) | 16 µM (inactive) | > 100 µM (inactive) | 52.6 µM (inactive) | – | – | – | – | –
14 | COc1ccc(-c2cc(=O)c3c(O)c(O)c(OC)cc3o2)cc1O | > 100 µM (inactive) | > 100 µM (inactive) | 84.5 µM (inactive) | > 100 µM (inactive) | > 100 µM (inactive) | > 100 µM (inactive) | > 100 µM (inactive) | > 100 µM (inactive) | 44.5 µM (inactive) | > 100 µM (inactive) | > 100 µM (inactive) | > 100 µM (inactive) | > 100 µM (inactive) | > 100 µM (inactive) | > 100 µM (inactive) | > 100 µM (inactive) | – | – | – | –
15 | COc1cc2c(c(OC)c1OC)C(=O)NCCC2 | > 100 µM (inactive) | > 100 µM (inactive) | > 100 µM (inactive) | > 100 µM (inactive) | > 100 µM (inactive) | > 100 µM (inactive) | > 100 µM (inactive) | > 100 µM (inactive) | > 100 µM (inactive) | > 100 µM (inactive) | > 100 µM (inactive) | > 100 µM (inactive) | > 100 µM (inactive) | > 100 µM (inactive) | > 100 µM (inactive) | > 100 µM (inactive) | – | > 100 µM (inactive) | – | –
